What was measured:
Conditions in all cases: 72 h
U2OS [1] = test: fractional viability (live cells / total cells); higher = less cell death
Protocol: (§1)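 U2OS::Nuc-mKate2 cells seeded in 96-well plates and treated with eight- to ten-point half-log or log dilutions of drug in the presence of 50 nM SYTOX Green. Live (mKate2+) and dead (SYTOX+) cells were counted by IncuCyte STACK live-cell microscopy at 72 h; biological triplicates. GR is the normalised growth-rate inhibition value (Hafner 2016; 1 = untreated growth, <0 = population shrinking). FV is live/(live+dead) cells, not normalised.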

U2OS [2] = test: normalized growth rate inhibition value (GR) relative to untreated cells (GR value (dimensionless, 1 = untreated growth)); higher = less growth inhibition
Protocol: as §1

U2OS [3] = test: GR50 (concentration giving GR = 0.5)
Protocol: (§2)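 U2OS cells treated with full dose titrations of drug; live and dead cells counted by STACK microscopy (mKate2 nuclei, SYTOX Green) at 72 h, biological triplicates. GR and FV dose responses were fitted with 4-parameter logistic models (GR lower bound -1). GRADE (0-100) is the rescaled angle of a linear fit of FV versus GR at doses with GR >= 0, giving the percentage of the response due to cell death.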

U2OS [4] = test: drug GRADE (percent of response due to cell death) (% (0-100)); higher = more death-driven response
Protocol: as §2

U2OS [5] = test: GRmin (fitted minimal GR value at highest effect) (GR value (dimensionless)); higher = less efficacious
Protocol: as §2

SMILES	fractional viability (U2OS [1]; 0.00100578 µM)	fractional viability (U2OS [1]; 0.00317827 µM)	fractional viability (U2OS [1]; 0.0100433 µM)	fractional viability (U2OS [1]; 0.0317369 µM)	fractional viability (U2OS [1]; 0.100289 µM)	fractional viability (U2OS [1]; 0.316912 µM)	fractional viability (U2OS [1]; 1.00144 µM)	fractional viability (U2OS [1]; 3.16456 µM)	fractional viability (U2OS [1]; 10 µM)	normalized growth rate inhibition value (U2OS [2]; 0.00100578 µM)	normalized growth rate inhibition value (U2OS [2]; 0.00317827 µM)	normalized growth rate inhibition value (U2OS [2]; 0.0100433 µM)	normalized growth rate inhibition value (U2OS [2]; 0.0317369 µM)	normalized growth rate inhibition value (U2OS [2]; 0.100289 µM)	normalized growth rate inhibition value (U2OS [2]; 0.316912 µM)	normalized growth rate inhibition value (U2OS [2]; 1.00144 µM)	normalized growth rate inhibition value (U2OS [2]; 3.16456 µM)	normalized growth rate inhibition value (U2OS [2]; 10 µM)	GR50 (U2OS [3])	fractional viability (U2OS [1]; 0.01 µM)	fractional viability (U2OS [1]; 0.0316 µM)	fractional viability (U2OS [1]; 0.1 µM)	fractional viability (U2OS [1]; 0.316 µM)	fractional viability (U2OS [1]; 1 µM)	fractional viability (U2OS [1]; 3.16 µM)	fractional viability (U2OS [1]; 31.6 µM)	drug GRADE (U2OS [4])	GRmin (U2OS [5])	normalized growth rate inhibition value (U2OS [2]; 0.01 µM)	normalized growth rate inhibition value (U2OS [2]; 0.0316 µM)	normalized growth rate inhibition value (U2OS [2]; 0.1 µM)	normalized growth rate inhibition value (U2OS [2]; 0.316 µM)	normalized growth rate inhibition value (U2OS [2]; 1 µM)	normalized growth rate inhibition value (U2OS [2]; 3.16 µM)	normalized growth rate inhibition value (U2OS [2]; 31.6 µM)
CCc1cncnc1N1CCN(Cc2nc3ccc(C(F)(F)F)cc3[nH]2)CC1	0.988	0.988	0.988	0.988	0.988	0.986	0.992	0.989	0.98	1.06	0.948	1.04	1.02	0.896	1	0.842	0.943	0.734	–	–	–	–	–	–	–	–	–	–	–	–	–	–	–	–	–
Cc1nn(C)c(COc2ccc(N3CCN(S(=O)(=O)N(C)C)CC3)cc2)c1-c1cccc2c(CCCOc3cccc4ccccc34)c(C(=O)O)n(CCN3CCOCC3)c12	0.991	0.989	0.987	0.991	0.99	0.987	0.978	0.96	0.852	0.982	0.925	0.967	0.917	0.934	0.942	0.899	0.919	0.718	–	–	–	–	–	–	–	–	–	–	–	–	–	–	–	–	–
COC1CCN(C(=O)c2cc(Cc3n[nH]c(=O)c4ccccc34)ccc2F)CC1 [AZD2461]	–	–	–	–	–	–	–	–	0.959	–	–	–	–	–	–	–	–	0.682	21.7 µM	0.974	0.973	0.978	0.975	0.972	0.97	0.919	13.6	0.0439	1.01	0.882	0.946	0.923	0.93	0.849	0.407
Cc1nc(NC(=O)N2CCC[C@H]2C(N)=O)sc1-c1ccnc(C(C)(C)C(F)(F)F)c1 [Alpelisib]	0.986	0.987	0.987	0.985	0.982	0.98	0.971	0.965	0.938	0.96	0.922	0.922	0.903	0.836	0.752	0.794	0.79	0.693	–	–	–	–	–	–	–	–	9	0.695	–	–	–	–	–	–	–
C[C@H]1[C@H](OC(=O)CCC(=O)O)O[C@@H]2O[C@@]3(C)CC[C@H]4[C@H](C)CC[C@@H]1[C@@]24OO3 [Artesunate]	–	–	–	–	–	–	–	–	0.941	–	–	–	–	–	–	–	–	0.63	14.7 µM	0.98	0.974	0.976	0.972	0.977	0.971	0.779	35.4	–	1.02	0.827	0.944	0.928	0.89	0.814	0.178
